Results as given in PMC6212553, “Baicalein Enhances the Oral Bioavailability and Hepatoprotective Effects of Silybin Through the Inhibition of Efflux Transporters BCRP and MRP2” (Frontiers in Pharmacology, 2018).
Where two headings read alike, the source gives them in different places.

What was measured:
[1] = Bidirectional transport of silybin across Caco-2 cell monolayers; format: in vitro ADME, Human; details: human
Method: Human colon epithelial cell line (Caco-2) was purchased from American Type Culture Collection (Manassas, VA, United States) and frozen at -80°C. Wild type MDCK II, MDR1-MDCK II, BCRP-MDCK II, and MRP2-MDCK II cells were kindly supplied by the Netherlands Cancer Institute (Amsterdam, Netherlands). Transport study was carried out with Caco-2 cells, and MDCK II cells were transfected using a previously established method with slight modifications ([Yuan et al., 2017]). The Caco-2 cells were cultured at 37°C/5% CO2 in Dulbecco's modified Eagle's medium (DMEM) supplemented with 10% fetal bovine serum, 1% nonessential amino acids, and 1% penicillin-streptomycin. The Caco-2 cells were seeded onto polyester filter membranes in a 12-well Transwell® plate (Corning Costar Co., NY, United States) with 0.6 × 10^5 cells/cm^2. The monolayer cells were used for transport assays between 21 and 23 days. The MDCKII cells were seeded on transwell plates with a density of 2.0 × 10^5 cells/cm^2 and grown for 4-5 days to form a confluent monolayer. Bidirectional transport assays for Caco-2 and MDCK II cells were performed by adding silybin (10 μM) in assay buffer into either the apical (AP; A-to-B) or basolateral (BL; […] For inhibition studies, Caco-2 or MDCK II cell monolayers in both apical and basolateral chambers were preincubated with the inhibitor for 30 min. The fluorescence intensity of the sample collected from the AP or BL side was immediately detected in a 96-well black plate by the Microplate UV/VIS spectrophotometer (TECAN Infinite […], Männedorf, Switzerland). For liquid chromatography tandem-mass spectrometry (LC-MS/MS) analysis, the sample (100 μl) was mixed with methanol (50 μl) containing internal standard (25 ng/ml) and was stored at -80°C. The formula for calculating apparent permeability coefficient (Papp) values is as follows: (1) […] where dQ/dt (mM/s) represents the rate of permeation of the drug across the cells, C0 (mM) refers to the concentration in the donor compartment at time zero calculated from dosing solution, and A (cm^2) refers to the area of the cell monolayer. Papp (B-A) is the Papp value measured in the B to A direction, and Papp (A-B) is the Papp value measured in the A to B direction. The efflux ratio is given as ER = Papp (B to A)/Papp (A to B).

[2] = Stability of SBA and SBB in plasma QC samples; format: in vitro ADME, rat; details: three freeze–thaws, long-term, short-term, post-preparative
Method: Next, we wanted to investigate the effect of baicalein on the PKs of silybin in vivo. A validated analytical method for the determination of silybin and its total conjugates in rat plasma by LC-MS was developed based on a previous report with minor modifications ([Yuan et al., 2017]). […] The results of precision and accuracy for intra- and inter-day evaluation are presented in Supplementary Table S2. The lower limit of quantification (LLOQ) was 5 ng/ml with relative standard deviation (RSD) ≤6.4%. The RSD values of quality control (QC) samples examined for precision were within 6.4%, while the accuracy ranged from 91.7 to 109.5%. It can be seen from Supplementary Table S2 that the extraction recoveries of silybin A and B were above 84.4% in plasma. Stability of SBA and SBB in plasma was also tested using QC samples at four different concentrations in the stability tests of three freeze–thaws, long-term, short-term, and post-preparative.
S. Table 1.Calibration curves for determination of S Ba, and S Bb in plasm a samples.
Cpd. Standard curv es R2 R ange
S. Table 2.P recision,accurac y and recover y for determination of S Ba, and S Bb in […]
S. Table 3. Stabilit y t esting results for determination of SBa, and S Bb in plasma […]
Initial a Freeze- thaw b Short-t e r m b Long- t e r m b Post-Prep. b […]
a. Contents of silybin and tangeretin in the freshly prepared QC samples. b. […]

[3] = Caco-2, silybin 10 μM, co-treatment with baicalein 5 μM, read-out: efflux ratio
[4] = Caco-2 model, silybin alone, read-out: mean efflux ratio

Row | SMILES | efflux ratio at 180 min, 10 μM [1, 3] | efflux ratio at 180 min, 10 μM [1, 4] | stability in plasma [2]
1 | COc1cc([C@H]2Oc3cc([C@H]4Oc5cc(O)cc(O)c5C(=O)[C@@H]4O)ccc3O[C@@H]2CO)ccc1O [silybin A] | 2.38 ± 0.27 | 5.62 | without significant loss
2 | COc1cc([C@@H]2Oc3cc([C@H]4Oc5cc(O)cc(O)c5C(=O)[C@@H]4O)ccc3O[C@H]2CO)ccc1O [silybin B] | 2.33 ± 0.09 | 5.13 | without significant loss
